In ChEMBL document CHEMBL1150121, “A new cytotoxic calyculinamide derivative, geometricin A, from the Australian sponge Luffariella geometrica” (2002):
In brackets after ≈: the same amount, converted by molar mass.

Key:
Type in all cases: functional
[1] = Growth inhibition of human HM02 cells
[Chlorella] fusca = Antialgal activity against Chlorella fusca at 50 ug/disk by agar diffusion test; conditions: Scenedesmus fuscus; read-out: IZ
Microbotryum violaceum = assay: Antifungal activity against Microbotryum violaceum at 50 ug/disk by agar diffusion test; conditions: read-out: IZ
HepG2 = assay: Growth inhibition of human HepG2 cells

COC(CC(O)C(C)C(O)C(C)/C=C(C)/C(C)=C/CC/C(C)=C\C(N)=O)[C@H]1O[C@]2(C[C@H](O)[C@H](C)[C@H](C/C=C/c3coc(C)n3)O2)C(C)(C)[C@H]1OP(=O)(O)O (stereo partly specified) [GEOMETRICIN A]
GI50 [1]: 1.7 µg/mL (≈ 2.17 µM)
TGI [1]: 3.2 µg/mL (≈ 4.09 µM)
zone of inhibition at 50 µg/disc ([Chlorella] fusca): 5 mm
zone of inhibition at 50 µg/disc (Microbotryum violaceum): 5 mm
GI50 (HepG2): 2.8 µg/mL (≈ 3.58 µM)
TGI (HepG2): 8.8 µg/mL (≈ 11.2 µM)
